Data on seven compounds can be found in article PMC4207660, “Identification and Characterization of Hundreds of Potent and Selective Inhibitors of Trypanosoma brucei Growth from a Kinase-Targeted Library Screening Campaign” (PLoS Neglected Tropical Diseases, 2014).

One series addresses AURB (Homo sapiens, UniProt Q96GD4). Briefly: Human kinase selectivity screening: AURB. The series is classed as biochemical. Conditions: read-out: AURB pIC50 values (converted). An excerpt:
(§1) These kinases were chosen for general selectivity screening owing to their broad representation of the human kinome.

The target in another series is LCK (Homo sapiens, UniProt P06239). Nature of the series: Human kinase selectivity screening: LCK. Type of series: biochemical. Conditions: read-out: LCK pIC50 values (converted).
Excerpt: as §1

The target in a further series is T1, ITK (Homo sapiens, UniProt Q08881).
T1 sequence (Q08881 1-620): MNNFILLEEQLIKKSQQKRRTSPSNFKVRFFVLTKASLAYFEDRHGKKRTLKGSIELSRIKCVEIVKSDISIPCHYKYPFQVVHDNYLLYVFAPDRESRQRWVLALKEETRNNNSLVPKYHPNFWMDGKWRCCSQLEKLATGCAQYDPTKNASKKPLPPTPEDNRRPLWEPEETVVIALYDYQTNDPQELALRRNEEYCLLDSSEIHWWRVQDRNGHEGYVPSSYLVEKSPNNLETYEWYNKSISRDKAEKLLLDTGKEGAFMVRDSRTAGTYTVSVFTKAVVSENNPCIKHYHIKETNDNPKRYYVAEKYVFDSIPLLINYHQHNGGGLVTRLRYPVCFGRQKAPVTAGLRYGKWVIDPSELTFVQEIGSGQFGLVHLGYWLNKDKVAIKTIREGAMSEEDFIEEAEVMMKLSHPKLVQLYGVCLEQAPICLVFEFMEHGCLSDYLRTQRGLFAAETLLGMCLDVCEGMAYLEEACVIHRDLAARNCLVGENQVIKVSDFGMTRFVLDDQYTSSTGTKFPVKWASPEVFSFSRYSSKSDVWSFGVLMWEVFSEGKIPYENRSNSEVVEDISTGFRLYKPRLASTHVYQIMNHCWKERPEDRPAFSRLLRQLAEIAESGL
Nature of the series: Human kinase selectivity screening: ITK. The series is classed as biochemical. The following applies: read-out: ITK pIC50 values (converted).
Excerpt: as §1

The target in the next series is T2, IKK2 (Homo sapiens, UniProt O14920).
T2 sequence (O14920 1-756): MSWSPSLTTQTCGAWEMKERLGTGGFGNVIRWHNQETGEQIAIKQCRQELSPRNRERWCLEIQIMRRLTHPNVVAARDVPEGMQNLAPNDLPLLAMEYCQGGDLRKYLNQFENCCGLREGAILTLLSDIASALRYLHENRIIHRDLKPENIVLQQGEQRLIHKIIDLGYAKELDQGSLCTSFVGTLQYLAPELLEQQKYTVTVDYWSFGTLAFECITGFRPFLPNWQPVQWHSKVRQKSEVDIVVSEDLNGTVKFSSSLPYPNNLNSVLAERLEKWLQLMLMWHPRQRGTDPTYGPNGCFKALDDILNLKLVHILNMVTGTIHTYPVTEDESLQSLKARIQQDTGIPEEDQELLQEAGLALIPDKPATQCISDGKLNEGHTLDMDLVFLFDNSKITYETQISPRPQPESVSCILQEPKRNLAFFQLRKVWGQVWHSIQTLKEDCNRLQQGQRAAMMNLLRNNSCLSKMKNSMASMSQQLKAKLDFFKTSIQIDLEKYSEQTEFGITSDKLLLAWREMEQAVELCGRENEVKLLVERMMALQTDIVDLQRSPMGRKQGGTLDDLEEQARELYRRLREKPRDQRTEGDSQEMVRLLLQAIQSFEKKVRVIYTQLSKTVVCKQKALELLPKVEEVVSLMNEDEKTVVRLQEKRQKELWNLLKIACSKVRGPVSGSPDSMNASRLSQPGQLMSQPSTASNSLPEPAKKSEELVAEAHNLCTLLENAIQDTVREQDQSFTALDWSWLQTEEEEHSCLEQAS
Briefly: Human kinase selectivity screening: IKK2. The series is classed as biochemical. Conditions: read-out: IKK2 pIC50 values (converted).
Excerpt: as §1

A short description of series [1]: CLND kinetic solubility assay. The series is classed as physicochemical. The following applies: phosphate buffered saline, pH 7.4, aqueous buffer, kinetic from dmso stock; Measured; read-out: Aq Sol. How it is done:
5 µL of 10 mM DMSO stock solution was diluted to 100 µL with pH 7.4 phosphate buffered saline, equilibrated for 1 hour at room temperature, filtered through Millipore MultiscreenHTS-PCF filter plates (MSSL BPC). The filtrate was quantified by suitably calibrated flow injection Chemi-Luminescent Nitrogen Detection.

The target of a further series is BTK (Homo sapiens, UniProt Q06187). Nature of the series: Human kinase selectivity screening: BTK. The series is classed as biochemical. The following applies: read-out: BTK pIC50 values (converted).
Excerpt: as §1

A further series has as its target EGFR (Homo sapiens, UniProt P00533). Briefly: Human kinase selectivity screening: EGFR. Type of series: biochemical. The following applies: read-out: EGFR pIC50 values (converted).
Excerpt: as §1

Series [2] relates to T. brucei brucei parasites (Lister 427 strain). Briefly: Dose response growth inhibition assay (resazurin, 72 h). Type of series: cell-based. The following applies: Trypanosoma brucei; read-out: T brucei pEC50 (converted). Background: The colour change of resazurin is a common sign of viable cells or microbes.
In the next series the target is T3, P38A (Homo sapiens, UniProt Q16539).
T3 construct: variant as stated: P38A
Briefly: biochemical.
Excerpt: as §1

For a further series, the target named is PI3KA (Homo sapiens, UniProt P42336). Briefly: Human kinase selectivity screening: PI3KA. Type of series: biochemical. Conditions: read-out: PI3KA pIC50 values (converted).
Excerpt: as §1

Values after ≈ are worked out from the molar mass of the structure shown.

EGFR, sequence (P00533 25-1210): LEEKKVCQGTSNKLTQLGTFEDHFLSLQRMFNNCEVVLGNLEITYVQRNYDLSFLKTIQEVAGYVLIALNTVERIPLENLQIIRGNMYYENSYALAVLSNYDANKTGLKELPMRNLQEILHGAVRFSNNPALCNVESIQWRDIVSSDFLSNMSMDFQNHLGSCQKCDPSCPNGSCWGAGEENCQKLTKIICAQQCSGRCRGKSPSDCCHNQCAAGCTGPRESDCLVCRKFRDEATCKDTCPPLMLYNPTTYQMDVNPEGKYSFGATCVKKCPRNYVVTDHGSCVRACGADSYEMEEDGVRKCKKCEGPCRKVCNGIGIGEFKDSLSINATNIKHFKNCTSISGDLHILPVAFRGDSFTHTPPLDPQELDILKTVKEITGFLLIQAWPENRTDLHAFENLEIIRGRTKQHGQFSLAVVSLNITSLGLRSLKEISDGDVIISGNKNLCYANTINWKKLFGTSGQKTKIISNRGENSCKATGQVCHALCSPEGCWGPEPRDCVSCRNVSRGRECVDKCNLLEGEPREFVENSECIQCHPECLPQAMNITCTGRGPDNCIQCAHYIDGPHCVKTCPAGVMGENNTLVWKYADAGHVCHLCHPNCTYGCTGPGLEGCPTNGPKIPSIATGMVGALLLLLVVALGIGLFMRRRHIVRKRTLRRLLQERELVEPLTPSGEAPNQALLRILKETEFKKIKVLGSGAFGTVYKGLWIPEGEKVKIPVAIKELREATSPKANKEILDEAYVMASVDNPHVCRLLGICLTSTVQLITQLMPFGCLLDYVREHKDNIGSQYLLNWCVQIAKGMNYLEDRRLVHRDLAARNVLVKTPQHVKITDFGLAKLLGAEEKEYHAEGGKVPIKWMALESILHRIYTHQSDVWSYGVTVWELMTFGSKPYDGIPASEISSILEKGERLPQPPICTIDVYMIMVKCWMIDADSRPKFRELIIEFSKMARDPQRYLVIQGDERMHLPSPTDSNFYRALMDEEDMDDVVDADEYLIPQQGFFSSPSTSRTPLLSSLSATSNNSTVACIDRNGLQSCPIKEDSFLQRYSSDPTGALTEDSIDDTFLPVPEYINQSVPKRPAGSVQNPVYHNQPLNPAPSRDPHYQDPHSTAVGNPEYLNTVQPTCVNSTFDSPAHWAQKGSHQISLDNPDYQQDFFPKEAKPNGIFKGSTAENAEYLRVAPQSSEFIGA
PI3KA, sequence (P42336 whole entry): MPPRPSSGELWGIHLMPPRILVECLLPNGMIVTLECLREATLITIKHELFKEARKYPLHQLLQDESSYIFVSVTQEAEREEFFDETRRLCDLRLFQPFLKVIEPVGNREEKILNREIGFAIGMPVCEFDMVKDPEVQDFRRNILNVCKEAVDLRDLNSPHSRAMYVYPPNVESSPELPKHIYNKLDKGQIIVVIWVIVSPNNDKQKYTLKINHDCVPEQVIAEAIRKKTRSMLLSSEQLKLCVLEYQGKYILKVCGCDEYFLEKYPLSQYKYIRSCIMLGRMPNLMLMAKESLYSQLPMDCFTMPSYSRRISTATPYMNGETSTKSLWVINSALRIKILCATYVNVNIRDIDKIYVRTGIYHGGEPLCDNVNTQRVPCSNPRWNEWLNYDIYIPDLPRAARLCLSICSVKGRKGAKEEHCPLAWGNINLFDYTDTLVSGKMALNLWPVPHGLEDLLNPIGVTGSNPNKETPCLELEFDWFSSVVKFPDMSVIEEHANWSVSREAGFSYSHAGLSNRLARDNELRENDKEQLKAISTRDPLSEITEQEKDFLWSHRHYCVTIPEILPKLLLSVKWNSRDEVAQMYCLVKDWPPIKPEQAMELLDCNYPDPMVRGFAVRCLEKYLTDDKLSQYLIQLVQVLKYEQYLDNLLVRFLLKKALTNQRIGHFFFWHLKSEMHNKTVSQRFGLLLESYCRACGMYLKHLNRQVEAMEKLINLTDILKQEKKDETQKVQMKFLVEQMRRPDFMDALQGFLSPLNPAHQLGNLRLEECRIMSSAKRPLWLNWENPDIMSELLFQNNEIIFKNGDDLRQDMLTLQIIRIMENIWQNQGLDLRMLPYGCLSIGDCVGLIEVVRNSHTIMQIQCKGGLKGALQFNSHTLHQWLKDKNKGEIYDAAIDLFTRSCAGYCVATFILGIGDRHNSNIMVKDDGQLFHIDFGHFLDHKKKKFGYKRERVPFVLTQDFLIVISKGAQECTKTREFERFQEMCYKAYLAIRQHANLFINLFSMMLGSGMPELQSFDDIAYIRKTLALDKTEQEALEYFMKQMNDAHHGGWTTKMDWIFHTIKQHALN
PI3KA, sequence (P27986 whole entry partner): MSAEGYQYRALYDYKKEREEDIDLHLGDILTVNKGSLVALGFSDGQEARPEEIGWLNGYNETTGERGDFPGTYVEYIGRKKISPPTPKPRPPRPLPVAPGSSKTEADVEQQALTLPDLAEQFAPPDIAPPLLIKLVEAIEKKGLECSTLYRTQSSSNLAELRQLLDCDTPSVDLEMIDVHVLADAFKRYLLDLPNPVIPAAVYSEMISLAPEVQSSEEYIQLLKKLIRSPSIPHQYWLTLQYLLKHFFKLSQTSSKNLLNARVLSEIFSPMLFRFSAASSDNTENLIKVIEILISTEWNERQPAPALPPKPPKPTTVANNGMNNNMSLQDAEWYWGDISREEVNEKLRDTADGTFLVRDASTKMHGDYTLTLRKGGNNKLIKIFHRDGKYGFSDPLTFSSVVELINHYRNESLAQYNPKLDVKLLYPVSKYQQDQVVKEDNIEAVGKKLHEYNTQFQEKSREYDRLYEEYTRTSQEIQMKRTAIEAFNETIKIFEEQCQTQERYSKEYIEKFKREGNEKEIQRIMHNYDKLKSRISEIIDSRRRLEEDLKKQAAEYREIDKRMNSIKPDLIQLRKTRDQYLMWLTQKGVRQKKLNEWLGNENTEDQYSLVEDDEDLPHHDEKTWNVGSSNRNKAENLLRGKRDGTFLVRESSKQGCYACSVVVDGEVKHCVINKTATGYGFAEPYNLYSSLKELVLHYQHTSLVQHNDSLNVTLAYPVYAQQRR
BTK, sequence (Q06187 whole entry): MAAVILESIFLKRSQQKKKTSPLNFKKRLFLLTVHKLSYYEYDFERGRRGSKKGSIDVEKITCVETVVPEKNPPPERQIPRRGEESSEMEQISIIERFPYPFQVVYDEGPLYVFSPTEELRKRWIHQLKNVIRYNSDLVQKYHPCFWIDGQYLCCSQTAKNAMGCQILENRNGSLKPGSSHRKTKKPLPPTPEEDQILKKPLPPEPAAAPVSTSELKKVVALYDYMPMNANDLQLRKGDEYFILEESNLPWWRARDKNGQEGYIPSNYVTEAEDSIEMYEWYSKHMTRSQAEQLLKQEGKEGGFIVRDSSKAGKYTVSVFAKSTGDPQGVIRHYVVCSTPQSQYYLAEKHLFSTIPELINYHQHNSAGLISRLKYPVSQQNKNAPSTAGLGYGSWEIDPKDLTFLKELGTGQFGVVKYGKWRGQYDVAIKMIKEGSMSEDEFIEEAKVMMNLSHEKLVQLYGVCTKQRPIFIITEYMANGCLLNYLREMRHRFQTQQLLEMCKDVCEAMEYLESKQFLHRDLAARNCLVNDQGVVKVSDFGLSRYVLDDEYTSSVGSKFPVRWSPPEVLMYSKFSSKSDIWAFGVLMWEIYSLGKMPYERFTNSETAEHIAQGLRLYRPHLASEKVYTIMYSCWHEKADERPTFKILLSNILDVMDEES
LCK, sequence (P06239 whole entry): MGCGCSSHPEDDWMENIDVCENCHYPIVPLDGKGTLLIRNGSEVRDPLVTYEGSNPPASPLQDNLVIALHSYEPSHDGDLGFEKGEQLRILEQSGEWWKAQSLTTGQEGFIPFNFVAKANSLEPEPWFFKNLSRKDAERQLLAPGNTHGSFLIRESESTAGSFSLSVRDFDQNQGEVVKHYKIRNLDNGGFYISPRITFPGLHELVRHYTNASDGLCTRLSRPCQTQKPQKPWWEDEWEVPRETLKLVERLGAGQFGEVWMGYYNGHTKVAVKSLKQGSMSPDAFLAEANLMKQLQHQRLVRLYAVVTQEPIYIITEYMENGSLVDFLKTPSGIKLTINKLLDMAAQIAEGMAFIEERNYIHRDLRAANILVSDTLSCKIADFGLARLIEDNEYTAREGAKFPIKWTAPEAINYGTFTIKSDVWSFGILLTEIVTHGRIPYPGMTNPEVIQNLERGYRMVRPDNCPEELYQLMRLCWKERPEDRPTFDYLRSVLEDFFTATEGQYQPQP
T3 sequence (Q16539 2-360): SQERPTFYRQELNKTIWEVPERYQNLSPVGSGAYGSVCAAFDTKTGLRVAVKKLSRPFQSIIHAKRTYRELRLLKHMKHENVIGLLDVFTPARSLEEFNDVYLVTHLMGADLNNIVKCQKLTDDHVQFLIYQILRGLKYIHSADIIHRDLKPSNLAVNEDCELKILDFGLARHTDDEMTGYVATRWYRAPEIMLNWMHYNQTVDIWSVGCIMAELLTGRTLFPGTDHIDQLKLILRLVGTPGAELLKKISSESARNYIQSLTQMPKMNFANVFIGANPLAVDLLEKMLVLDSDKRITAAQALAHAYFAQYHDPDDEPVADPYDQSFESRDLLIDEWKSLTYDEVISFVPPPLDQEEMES
AURB, sequence (Q96GD4 whole entry): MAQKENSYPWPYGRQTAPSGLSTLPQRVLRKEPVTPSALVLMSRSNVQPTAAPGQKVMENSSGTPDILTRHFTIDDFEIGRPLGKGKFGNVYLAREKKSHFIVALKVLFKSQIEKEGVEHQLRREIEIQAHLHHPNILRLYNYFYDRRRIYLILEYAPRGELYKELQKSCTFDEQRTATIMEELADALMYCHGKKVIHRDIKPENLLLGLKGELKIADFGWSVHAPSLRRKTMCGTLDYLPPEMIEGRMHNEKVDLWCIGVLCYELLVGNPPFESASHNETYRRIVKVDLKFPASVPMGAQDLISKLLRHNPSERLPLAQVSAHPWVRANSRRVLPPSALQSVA

Turning to `Cn1cc(-c2cnc3[nH]cc(-c4cccc(C#N)c4)c3c2)cn1` [NEU-0001207], the IC50 was 1260 nM on AURB; 2510 nM on LCK; 1000 nM on ITK; 2000 nM on IKK2; over 25100 nM on BTK; 5010 nM on EGFR. Moreover, the IC50 was over 25100 nM against P38A and 3980 nM on PI3KA. Also, in series [1], the solubility kinetic at 1 h was 12 µM (≈ 3.59 µg/mL). For the same compound, the EC50 in series [2] is 100 nM.

On to `CCCCc1nc(Nc2cccc(C)c2)c2c(=O)[nH]ccc2n1` [NEU-0001191], for which the IC50 on AURB is 158 nM; on LCK, over 25100 nM; at ITK, over 25100 nM; on IKK2, over 25100 nM; on BTK it was over 25100 nM; on EGFR it was over 25100 nM. In addition, the IC50 against P38A and at PI3KA was over 25100 nM each time. Besides, the solubility kinetic at 1 h in [1] was found to be 22 µM (≈ 6.78 µg/mL). The EC50 in series [2] was 79.4 nM.

Turning to `O=C(Nc1ccc(-c2ccnc3[nH]ccc23)s1)C1(Cc2ccccc2)CCCNC1` (stereo not shown) [NEU-0001240], the IC50 at AURB is 0.501 nM; at LCK, 1580 nM; at ITK it was 316 nM; at IKK2 it was 501 nM; at BTK, 794 nM; on EGFR, over 25100 nM. The IC50 at P38A and on PI3KA was over 25100 nM each time. The solubility kinetic at 1 h in [1] worked out at 107 µM (≈ 44.6 µg/mL). The EC50 in [2] is 0.794 nM.

For `Cc1cc(Nc2cc(C3CC3)[nH]n2)nc(N2CCCCC2)n1` [NEU-0001127], the IC50 at AURB was 158 nM; on LCK, 1000 nM; at ITK, 1000 nM; at IKK2, over 25100 nM; on BTK it was 5010 nM; at EGFR, over 25100 nM. Besides, the IC50 on P38A and at PI3KA was over 25100 nM throughout. Further, the solubility kinetic at 1 h in [1] was 265 µM (≈ 79.1 µg/mL). For the same compound, the EC50 in [2] was 31.6 nM.

Regarding `CN(C)Cc1ccc(-c2[nH]c3ncc(C#N)cc3c2-c2ccccc2)cc1` [NEU-0001206], the IC50 at AURB was 39.8 nM; on LCK, 50.1 nM; on ITK it was 12.6 nM; at IKK2, over 25100 nM; on BTK it was 316 nM; at EGFR, 2510 nM. Moreover, the IC50 against P38A and at PI3KA was over 25100 nM each time. In addition, in series [1], the solubility kinetic at 1 h is 17 µM (≈ 5.99 µg/mL). In [2], the EC50 was 100 nM.

Consider `O=S1(=O)Cc2ccc(Nc3nccc(-c4ccc(F)cc4)n3)cc2C1` [NEU-0001142], for which the IC50 on AURB is 63.1 nM; at LCK it was 2510 nM; at ITK, over 25100 nM; on IKK2 it was 501 nM; on BTK, 20000 nM; at EGFR, over 25100 nM. The IC50 is 25100 nM against P38A and over 25100 nM on PI3KA. In series [1], the solubility kinetic at 1 h came out at 1 µM (≈ 0.355 µg/mL). In addition, in series [2], the EC50 was 20 nM.

On to `CCCNc1nc(Nc2cnn(C)c2)c2c(=O)[nH]ccc2n1` [NEU-0001187], for which the IC50 at AURB was 7.94 nM; on LCK, 200 nM; on ITK, 63.1 nM; on IKK2 it was 3980 nM; on BTK it was 200 nM; on EGFR, 1260 nM. Besides, the IC50 on P38A and on PI3KA was over 25100 nM throughout. For the same compound, the solubility kinetic at 1 h in series [1] was determined as 252 µM (≈ 75.4 µg/mL). Besides, in [2], the EC50 is 79.4 nM.
